Test results reported in patent US6514517B2, “Antimicrobial coatings for medical devices” (Ethicon, Inc., priority 2001, dated 2003).

Test system: Staphylococcus aureus ATCC33591
Assay: Kirby-Bauer type test, coated suture sections on seeded agar plates
Type: cell-based
Description: In order to further evaluate the in-vitro potential for pH-lowering coatings, a study was carried out with Staphylococcus aureus ATCC33591. A series of coatings was prepared by dissolving 2.5, 5, 10 and 20 percent (w/w) of L(−)-lactide, respectively, in ethyl acetate. A second series of coatings was prepared by dissolving 2.5, 5, 10 and 20 percent (w/w) of L(−)-lactide in combination with 9 percent (w/w) polyoxaester, respectively, in ethyl acetate.
The polyoxaester coating copolymer used was a poly(ethylene 3,6,9-trioxaundecanedioate-seg-caprolactone-co-glycolide) resin comprised of approximately 17 weight percent polyoxaester prepolymer and a 83 weight percent polymerized mixture of approximately 91 mole percent ε-caprolactone and 9 mole percent glycolide. The polyoxaester is a polycondensation product of 3,6,9-trioxaundecanedioic acid and ethylene glycol made to have hydroxyl functionalities at both ends of each chain. The final resin is made through a ring opening polymerization of the ε-caprolactone and glycolide mixture using the polyoxaester as an α,ω-dihydroxy-macroinitiator. The inherent viscosity of the coating copolymer was 0.55 dL/g as determined in hexafluoroisopropanol (HFIP) at 25° C. at a concentration of 0.1 g/dL.
A third series of coatings was prepared by dissolving 2.5, 5, 10 and 20 percent (w/w) of glycolide, respectively, in ethyl acetate. A fourth series of coatings was prepared by dissolving 2.5, 5, 10 and 20 percent (w/w) of glycolide in combination with 9 percent (w/w) polyoxaester coating copolymer, respectively, in ethyl acetate. Approximately one-inch sections of commercial size 2/0 synthetic absorbable braided [10/90 poly(lactide-co-glycolide)] suture were dipped into the solutions and were dried overnight in a laminar flow hood, thereby providing a coated suture according to the present invention. In a Kirby-Bauer type test, plates were seeded with a 24-hour culture of Staph. aureus. The coated suture sections were placed on agar plates and the plates were incubated at 30-35° C. for 24 hours. […] For sutures coated from solutions comprising 2.5 percent and 5 percent lactide, respectively, zones of inhibition extending approximately 1 mm from the coated suture were observed. […] Utilizing a 20 percent lactide coating solution, the zone of inhibition was greater than 1 mm. All other coatings yielded results approximately the same as those obtained from a 10 percent lactide coating solution.
Referring to FIG. 3, a one inch-section of suture 30 coated with a solution of 20 percent by weight lactide in ethyl acetate was placed on a seeded agar plate and incubated as above. […] Referring to FIG. 2, when a section of untreated suture 20 is placed on a seeded agar plate and incubated as above, microorganisms 22 are present immediate and adjacent to the untreated suture and no zone of inhibition is noted around the suture.

[1] = 2/0 braided 10/90 poly(lactide-co-glycolide) suture coated from 2.5 percent solution in ethyl acetate, 30-35° C., 24 hours
[2] = 2/0 braided 10/90 poly(lactide-co-glycolide) suture coated from 5 percent solution in ethyl acetate, 30-35° C., 24 hours
[3] = 2/0 braided 10/90 poly(lactide-co-glycolide) suture coated from 10 percent solution in ethyl acetate, 30-35° C., 24 hours

Row | Structure (SMILES) | zones of inhibition extending from the coated suture [1] | zones of inhibition extending from the coated suture [2] | zones of inhibition extending from the coated suture [3] | zone of inhibition extending from the coated suture (2/0 braided 10/90 poly(lactide-co-glycolide) suture coated from 20 percent solution in ethyl acetate, 30-35° C., 24 hours) | zone of inhibition (FIG. 3, in words) (one inch-section of suture coated with 20 percent by weight solution in ethyl acetate)
1 | C[C@@H]1OC(=O)[C@H](C)OC1=O [L(−)-lactide] | approximately 1 mm | approximately 1 mm | approximately 1 mm | greater than 1 mm | Zone of inhibition 34 clearly surrounds coated suture 30
2 | O=C1COC(=O)CO1 [glycolide] | less than 1 mm | less than 1 mm | approximately 1 mm | – | –
